According to article PMC9866866, “Antiviral Activity of Benzoheterocyclic Compounds from Soil-Derived Streptomyces jiujiangensis NBERC-24992” (Molecules, 2023):
≈ marks a conversion by molar mass, not a printed value.

Legend:
[1] = system: PRV; assay: microbe, parasite or virus in culture; type: cell-based, Pseudorabies virus; conditions: for EC50: Suid alphaherpesvirus 1, Vero, 48 h, read-out: Antiviral Activity EC50
[2] = system: Vero cells; conditions: for Cytotoxicity IC50 (CC50): African green monkey
[3] = in vitro; conditions: African green monkey
[4] = system: several viruses; conditions: cited from earlier work
[5] = system: various RNA and DNA viruses; conditions: cited from earlier work
[6] = system: PRV; type: cell-based, Pseudorabies virus
[7] = system: PRV; type: cell-based, Pseudorabies virus; remark: listed apart in the source

COC[C@@](Cl)(CCC(C)=C(C)C)[C@@H]1Cc2cc(C(=O)O)ccc2N1 [Compound 7, A-503451 A]
EC50 [1]: 6.46 ± 1.38 µg/mL (≈ 18.4 µM)

COC[C@@]1(CCC(CO)=C(C)C)Nc2ccc(C(=O)O)cc2C[C@H]1Cl [Compound 3, Virantmycin F]
EC50 [1]: 1.74 ± 0.25 µg/mL (≈ 4.73 µM) | Cytotoxicity IC50 (CC50) [2]: >20 µg/mL | viability [3]: 80%

COCC12CCC(C)(O)C(C)(C)C1Cc1cc(C(=O)O)ccc1N2 (stereo not drawn) [Compound 1, Virantmycin D]
EC50 [1]: > 20 µg/mL | Cytotoxicity IC50 (CC50) [2]: >20 µg/mL

COCC(O)(CCC(C)=C(C)C)C1Cc2cc(C(=O)O)ccc2N1 (stereo not drawn) [Compound 8, A-503451 B]
EC50 [1]: > 20 µg/mL | Cytotoxicity IC50 (CC50) [2]: >20 µg/mL

COC[C@@]1(CCC(C)=C(C)C)Nc2ccc(C(=O)O)cc2C[C@H]1OC(C)=O [Compound 6, A-503451 D acetylate]
EC50 [1]: > 20 µg/mL | Cytotoxicity IC50 (CC50) [2]: >20 µg/mL

COC[C@@]1(CCC(C)=C(C)C)Nc2ccc(C(N)=O)cc2C[C@H]1Cl [Benzastatin C]
antiviral activity against several viruses [4]: specific activities against several viruses

COCC(O)(CCC1(C)OC1(C)C)C1Cc2cc(C(=O)O)ccc2N1 (stereo not drawn) [Compound 2, Virantmycin E]
EC50 [1]: > 20 µg/mL | Cytotoxicity IC50 (CC50) [2]: >20 µg/mL

COCC1(CCC(C)=C(C)C)Nc2ccc(C(=O)O)cc2CC1Cl (stereo not drawn) [Compound 4, virantmycin]
cells alive (protection of Vero cells against PRV) [1]: more than 50% | EC50 [1]: < 0.31 µg/mL | toxic effect on the tested cells [2]: does not show any toxic effect | Cytotoxicity IC50 (CC50) [2]: >20 µg/mL | antiviral activity against various RNA and DNA viruses [5]: significant antiviral activity | PRV proliferation (qPCR, PRV gE) [6]: inhibits PRV proliferation in a dose–dependent manner | virus infection in PRV-infected cells (indirect immunofluorescence) [7]: significantly reduced

NC(=O)c1ncn([C@@H]2O[C@H](CO)[C@@H](O)[C@H]2O)n1 [Ribavirin, reference compound]
EC50 [1]: 4.44 ± 1.53 µg/mL (≈ 18.2 µM) | Cytotoxicity IC50 (CC50) [2]: >20 µg/mL

COC[C@@]1(CCC(C)=C(C)C)Nc2ccc(C(=O)O)cc2C[C@H]1O [Compound 5, A-503451 D]
EC50 [1]: > 20 µg/mL | Cytotoxicity IC50 (CC50) [2]: >20 µg/mL

COC[C@@]1(CCC(C)=C(C)C)Nc2ccc(C(N)=O)cc2C[C@H]1O [benzastatin D]
antiviral activity against several viruses [4]: inactive

Nc1nc2c(ncn2COCCO)c(=O)[nH]1 [Acyclovir, reference compound]
EC50 [1]: 2.96 ± 1.48 µg/mL (≈ 13.1 µM) | Cytotoxicity IC50 (CC50) [2]: >20 µg/mL
